Test [1] concerns the target T1, BTK (Homo sapiens (Human), UniProt Q06187). The test can be described thus: Btk occupancy in cellular assays (PCI-33380 labeling, Jeko-1 cells). It is filed as cell-based. Conditions: 1.5 h pre-incubation with compound, PCI-33380 5 μM 1 h. The method, then: Btk Occupancy in Cellular Assays
For PCI-33380 labeling of human B cells, 10^6 Jeko-1 cells were pre-incubated with compound for 1.5 h before labeling. Then cells were treated with PCI-33380 at 5 μM for 1 h. Washed, lysed in Ripa buffer containing sample reducing agent, and analyzed by SDS/PAGE and fluorescent gel scanning using a Typhoon scanner 9500 (GE Healthcare) (Ex, 532 nm; Em, 555 nm). The gel was then blotted and total Btk levels detected by standard Western blot with Btk antibody (CST).
Target sequence in this assay (Q06187 whole entry): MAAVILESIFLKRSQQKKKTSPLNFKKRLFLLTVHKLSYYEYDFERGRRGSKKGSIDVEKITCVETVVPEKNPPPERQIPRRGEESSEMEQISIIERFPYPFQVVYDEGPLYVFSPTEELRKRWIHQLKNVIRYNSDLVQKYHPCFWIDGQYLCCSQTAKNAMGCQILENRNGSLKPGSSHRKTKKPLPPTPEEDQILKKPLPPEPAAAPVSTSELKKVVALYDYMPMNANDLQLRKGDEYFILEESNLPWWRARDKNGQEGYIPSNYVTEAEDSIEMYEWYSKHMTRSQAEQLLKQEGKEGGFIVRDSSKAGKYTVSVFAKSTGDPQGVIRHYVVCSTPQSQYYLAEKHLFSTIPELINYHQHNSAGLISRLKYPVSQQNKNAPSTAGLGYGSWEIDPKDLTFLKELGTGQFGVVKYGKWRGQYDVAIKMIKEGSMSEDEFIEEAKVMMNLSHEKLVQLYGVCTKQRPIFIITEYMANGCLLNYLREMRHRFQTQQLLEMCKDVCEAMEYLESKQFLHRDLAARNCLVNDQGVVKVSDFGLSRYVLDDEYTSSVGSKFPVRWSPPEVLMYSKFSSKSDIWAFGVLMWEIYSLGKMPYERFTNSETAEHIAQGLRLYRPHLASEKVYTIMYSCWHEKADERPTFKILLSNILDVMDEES

For test [2], the target named is T1, BTK. Put plainly: Btk kinase assay (HTRF). It is filed as biochemical. To be noted: [ATP]=80 μM, BTK=3.4 nM; read-out: BTK Inhibition. How it is done: Btk Kinase Assay and Other Kinases Assay Btk kinase activity was determined using a homogenous time resolved fluorescence (HTRF) methodology. Measurements were performed in a reaction volume of 15 μL using 384-well assay plates. Kinase enzyme, inhibitor, ATP and 1 μM peptide substrate were incubated in a reaction buffer compose of Hepes 50 mM (pH7.0), NaN3 0.02%, BSA 0.01%, Orthocanadate 0.1 mM. […] For each compound, enzyme activity as measured at various concentrations of compound, Negative control reactions were performed in the absence of inhibitor in two replicates and eight no enzyme controls were used to determine baseline fluorescence levels.
Target sequence in this assay (Q06187 whole entry, species assumed): as the sequence (Q06187 whole entry) above
Background: Time-resolved FRET reads energy transfer from a long-lived donor to a nearby acceptor.

With `C=CC(=O)N1CCC[C@@H](n2nc(-c3ccc(Oc4cccc(OC)c4F)cc3)c3c(C)nccc32)C1` [Compound 78, (R)-1-(3-(3-(4-(2-fluoro-3-methoxyphenoxy)phenyl)-4-methyl-1H-pyrazolo[4,3-c]pyridin-1-yl)piperidin-1-yl)prop-2-en-1-one], on BTK [1], the “concentration sufficient to fully occupy the active site of Btk” value amounted to 50 nM. For the same compound, the IC50 at BTK [2] was less than 0.01 µM. The corresponding values for `C=CC(=O)N1CCC[C@@H](n2nc(-c3ccc(Oc4cccc(OC)c4F)cc3)c3cncc(OCCC)c32)C1` [Compound 77, (R)-1-(3-(3-(4-(2-fluoro-3-methoxyphenoxy)phenyl)-7-propoxy-1H-pyrazolo[4,3-c]pyridin-1-yl)piperidin-1-yl)prop-2-en-1-one] are 25 nM and less than 0.01 µM. The corresponding values for `C=CC(=O)N1CCC[C@@H](n2nc(-c3ccc(Oc4cccc(OC)c4F)cc3)c3cncc(OCCO)c32)C1` [Compound 98, (R)-1-(3-(3-(4-(2-fluoro-3-methoxyphenoxy)phenyl)-7-(2-hydroxyethoxy) 1H-pyrazolo[4,3-c]pyridin-1-yl)piperidin-1-yl)prop-2-en-1-one] are 100 nM and less than 0.01 µM. `C=CC(=O)N1CC[C@@H](n2nc(-c3ccc(Oc4cccc(OC)c4Cl)cc3)c3cncc(OC)c32)C1` [Compound 69, (R)-1-(3-(3-(4-(2-chloro-3-methoxyphenoxy)phenyl)-7-methoxy-1H-pyrazolo[4,3-c]pyridin-1-yl)pyrrolidin-1-yl)prop-2-en-1-one]: the “concentration sufficient to fully occupy the active site of Btk” value at BTK [1] is recorded as 100 nM. Besides, the IC50 on BTK [2] is less than 0.01 µM. As for `C=CC(=O)N1CC[C@@H](n2nc(-c3ccc(Oc4cccc(F)c4C)cc3)c3cnccc32)C1` [Compound 14, (R)-1-(3-(3-(4-(3-fluoro-2-methylphenoxy)phenyl)-1H-pyrazolo[4,3-c]pyridin-1-yl)pyrrolidin-1-yl)prop-2-en-1-one], on BTK [2], the IC50 lay within 0.01 to 0.1 µM. The same measure, in the same setting: for `COc1cccc(Oc2ccc(-c3nn([C@@H]4CCCN(C(=O)C(C)O)C4)c4c(OC)cncc34)cc2)c1F` (stereo partly drawn) [Compound 118, 1-((R)-3-(3-(4-(2-fluoro-3-methoxyphenoxy)phenyl)-7-methoxy-1H-pyrazolo[4,3-c]pyridin-1-yl)piperidin-1-yl)-2-hydroxypropan-1-one] the value was 0.01 to 0.1 µM. As for `C=CC(=O)N1CC[C@@H](n2nc(-c3ccc(Oc4ccccc4)cc3)c3c(N)cccc32)C1` [Compound 54, (R)-1-(3-(4-amino-3-(4-phenoxyphenyl)-1H-indazol-1-yl)pyrrolidin-1-yl)prop-2-en-1-one], the IC50 on BTK [2] was in the range of 0.01 to 0.1 µM. Same read-out and setting: as for `C=CC(=O)N1CCC[C@@H](n2nc(-c3ccc(Oc4cccc(C)c4F)cc3)c3cnccc32)C1` [Compound 48, (R)-1-(3-(3-(4-(2-fluoro-3-methylphenoxy)phenyl)-1H-pyrazolo[4,3-c]pyridin-1-yl)piperidin-1-yl)prop-2-en-1-one], the figure is 0.01 to 0.1 µM; as for `C=CC(=O)N1CCC[C@@H](n2nc(-c3ccc(NC(=O)c4cccc(C(F)(F)F)c4)cc3)c3cnccc32)C1` [Compound 117, (R)-N-(4-(1-(1-acryloylpiperidin-3-yl)-1H-pyrazolo[4,3-c]pyridin-3-yl)phenyl)-3-(trifluoromethyl)benzamide], 0.01 to 0.1 µM; as for `C=CC(=O)N1CCC[C@@H](n2nc(-c3ccc(Oc4cccc5c4OCO5)cc3)c3cnccc32)C1` [Compound 8, (R)-1-(3-(3-(4-(benzo[d][1,3]dioxol-4-yloxy)phenyl)-1H-pyrazolo[4,3-c]pyridin-1-yl)piperidin-1-yl)prop-2-en-1-one], 0.1 to 1 µM.

Take `C=CC(=O)N1CCC[C@@H](n2nc(-c3ccc(Oc4cccc(OC)c4F)cc3)c3cncc(OCCN)c32)C1` [Compound 87, (R)-1-(3-(7-(2-aminoethoxy)-3-(4-(2-fluoro-3-methoxyphenoxy)phenyl)-1H-pyrazolo[4,3-c]pyridin-1-yl)piperidin-1-yl)prop-2-en-1-one]: on BTK [2], the IC50 lay within 0.01 to 0.1 µM. Still for that read-out and setting: as for `C=CC(=O)N1CCC[C@@H](n2nc(-c3ccc(Oc4ccccc4)cc3)c3cnccc32)C1` [Compound 33, (R)-1-(3-(3-(4-phenoxyphenyl)-1H-pyrazolo[4,3-c]pyridin-1-yl)piperidin-1-yl)prop-2-en-1-one], the figure is less than 0.01 µM; as for `C=CC(=O)N1CC[C@@H](n2nc(-c3ccc(Oc4cccc(OC)c4F)cc3)c3c2CCN(C(C)=O)C3)C1` [Compound 45, (R)-1-(3-(5-acetyl-3-(4-(2-fluoro-3-methoxyphenoxy)phenyl)-4,5,6,7-tetrahydro-1H-pyrazolo[4,3-c]pyridin-1-yl)pyrrolidin-1-yl)prop-2-en-1-one], 1 to 10 µM. The same measure, in the same setting: as for `C=CC(=O)N1CCC[C@@H](n2nc3ccncc3c2-c2ccc(Oc3cccc(F)c3Cl)cc2)C1` [Compound 39, (R)-1-(3-(3-(4-(2-chloro-3-fluorophenoxy)phenyl)-2H-pyrazolo[4,3-c]pyridin-2-yl)piperidin-1-yl)prop-2-en-1-one], the figure is 0.01 to 0.1 µM; as for `C=CC(=O)N1CC2(CC(n3nc(-c4ccc(Oc5cccc(OC)c5F)cc4)c4cnccc43)C2)C1` [Compound 26, 1-(6-(3-(4-(2-fluoro-3-methoxyphenoxy)phenyl)-1H-pyrazolo[4,3-c]pyridin-1-yl)-2-azaspiro[3.3]heptan-2-yl)prop-2-en-1-one], less than 0.01 µM; as for `C=CC(=O)N1CC[C@@H](n2nc3ccncc3c2-c2ccc(-c3cccc(C)c3)cc2)C1` [Compound 108, (R)-1-(3-(3-(3′-methyl-[1,1′-biphenyl]-4-yl)-2H-pyrazolo[4,3-c]pyridin-2-yl)pyrrolidin-1-yl)prop-2-en-1-one], 0.1 to 1 µM. The same measure, in the same setting: for `C=CC(=O)N1CC[C@@H](n2nc(-c3ccc(Oc4cccc(OC)c4Cl)cc3)c3cncc(F)c32)C1` [Compound 68, (R)-1-(3-(3-(4-(2-chloro-3-methoxyphenoxy)phenyl)-7-fluoro-1H-pyrazolo [4,3-c]pyridin-1-yl)pyrrolidin-1-yl)prop-2-en-1-one] the value was less than 0.01 µM.

For the compound `C=CC(=O)N1CC[C@@H](n2nc(-c3ccc(Oc4cccc(C)c4)cc3)c3cnccc32)C1` [Compound 10, (R)-1-(3-(3-(4-(m-tolyloxy)phenyl)-1H-pyrazolo[4,3-c]pyridin-1-yl)pyrrolidin-1-yl)prop-2-en-1-one], the IC50 on BTK [2] lay in the range of 0.01 to 0.1 µM. Still for that read-out and setting: as for `C=CC(=O)N1CCC[C@@H](n2nc(-c3ccc(N4CCN(S(C)(=O)=O)CC4)cc3)c3cnccc32)C1` [Compound 115, (R)-1-(3-(3-(4-(4-(methylsulfonyl)piperazin-1-yl)phenyl)-1H-pyrazolo[4,3-c]pyridin-1-yl)piperidin-1-yl)prop-2-en-1-one], the figure is 0.1 to 1 µM; as for `C=CC(=O)N1CC[C@@H](n2nc(-c3ccc(Oc4cccc5c4CCC5)cc3)c3cnccc32)C1` [Compound 31, (R)-1-(3-(3-(4-((2,3-dihydro-1H-inden-4-yl)oxy)phenyl)-1H-pyrazolo[4,3-c]pyridin-1-yl)pyrrolidin-1-yl)prop-2-en-1-one], 0.01 to 0.1 µM; as for `C=CC(=O)N1CCC[C@H](n2nc(-c3ccc(Oc4cccc(C)c4)cc3)c3cnccc32)C1` [Compound 37, (S)-1-(3-(3-(4-(m-tolyloxy)phenyl)-1H-pyrazolo[4,3-c]pyridin-1-yl)piperidin-1-yl)prop-2-en-1-one], 0.01 to 0.1 µM. Same read-out and setting: for `C=CC(=O)N1CC[C@@H](n2nc(-c3ccc(OCc4ccccc4F)cc3)c3cnccc32)C1` [Compound 100, (R)-1-(3-(3-(4-((2-fluorobenzyl)oxy)phenyl)-1H-pyrazolo[4,3-c]pyridin-1-yl)pyrrolidin-1-yl)prop-2-en-1-one] the value was 0.01 to 0.1 µM. Same read-out and setting: as for `CCC(=O)N1CCC[C@@H](n2nc(-c3ccc(Oc4cccc(OC)c4F)cc3)c3cncc(OC)c32)C1` [Compound 89, (R)-1-(3-(3-(4-(2-fluoro-3-methoxyphenoxy)phenyl)-7-methoxy-1H-pyrazolo[4,3-c]pyridin-1-yl)piperidin-1-yl)propan-1-one], the figure is 0.1 to 1 µM; as for `C=CC(=O)N1CCc2c(c(-c3ccc(Oc4cccc(OC)c4F)cc3)nn2[C@@H]2CCN(C(=O)C=C)C2)C1` [Compound 46, (R)-1-(3-(5-acryloyl-3-(4-(2-fluoro-3-methoxyphenoxy)phenyl)-4,5,6,7-tetrahydro-1H-pyrazolo[4,3-c]pyridin-1-yl)pyrrolidin-1-yl)prop-2-en-1-one], more than 10 µM; as for `C=CC(=O)N1CCC[C@@H](n2nc(-c3ccc(N4CCC(N5CCCCC5)CC4)cc3)c3cnccc32)C1` [Compound 110, (R)-1-(3-(3-(4-([1,4′-bipiperidin]-1′-yl)phenyl)-1H-pyrazolo [4,3-c]pyridin-1-yl)piperidin-1-yl)prop-2-en-1-one], 0.01 to 0.1 µM. Take `C=CC(=O)N1CCC[C@@H](n2nc(-c3ccc(Oc4ccccc4)cc3)c3c(N)cccc32)C1` [Compound 55, (R)-1-(3-(4-amino-3-(4-phenoxyphenyl)-1H-indazol-1-yl)piperidin-1-yl)prop-2-en-1-one]: the IC50 at BTK [2] lay in the range of 0.01 to 0.1 µM. Consider `C=CC(=O)N1CCC[C@@H](n2nc(-c3ccc(Oc4cccc(OC)c4F)cc3)c3cncc(O)c32)C1` [Compound 82, (R)-1-(3-(3-(4-(2-fluoro-3-methoxyphenoxy)phenyl)-7-hydroxy-1H-pyrazolo[4,3-c]pyridin-1-yl)piperidin-1-yl)prop-2-en-1-one], for which the IC50 on BTK [2] was less than 0.01 µM.

The values are drawn from patent publication US10662187B2, “Bruton's tyrosine kinase inhibitors” (Zibo Biopolar Changsheng Pharmaceutical Co. Ltd., priority 2016, dated 2020).
